Measurements as given in patent US12428406B2 (PMV Pharmaceuticals, Inc., priority 2019, dated 2025).

Molecular target: T1, p53 Y220C (Homo sapiens, UniProt P04637, Y220C)
T1 construct: The recombinant protein was a truncation mutant containing only amino acids 94-312 of p53; made in house; host or cells: E. coli
Assay: In vitro DNA binding activity assay (HTRF / TR-FRET): stabilization of p53 Y220C and increase of its DNA binding activity
Assay type: biochemical
Settings: recombinant His-tagged p53 Y220C DNA binding domain (aa 94-312), biotin-labeled consensus DNA, incubated at 27° C. or 29° C. for 60 min
Outline: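 Homogeneous time-resolved fluorescence with E. coli-derived p53 Y220C and biotinylated consensus DNA. Room-temperature incubations of 15 and 20 min precede reading. SC150 denotes the compound concentration required for 50% increased DNA binding.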

T1 sequence (P04637 94-312, change not shown): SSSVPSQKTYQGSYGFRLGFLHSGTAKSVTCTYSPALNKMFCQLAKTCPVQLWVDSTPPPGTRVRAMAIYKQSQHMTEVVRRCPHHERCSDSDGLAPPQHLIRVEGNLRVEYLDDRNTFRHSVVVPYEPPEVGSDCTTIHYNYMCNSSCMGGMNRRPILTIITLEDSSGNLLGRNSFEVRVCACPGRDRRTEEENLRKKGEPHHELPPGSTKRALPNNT

Row | SC150 (concentration of the compound required to increase the DNA binding activity by 50%) | SMILES
1 | + (+ = 0 μM ≤ SC150 < 0.05 μM) | COCCOc1cc(S(C)(=O)=O)ccc1NCC#Cc1cc2c(N[C@H]3CC[C@H](N4CC5(COC5)C4)CC3)cccc2n1CC(F)(F)F [Compound 220A, 2-(3-{[4-methane-sulfonyl-2-(2-methoxyethoxy)phenyl]amino}prop-1-yn-1-yl)-N-[(1R,4R)-4-{2-oxa-6-azaspiro[3.3]heptan-6-yl}cyclohexyl]-1-(2,2,2-trifluoroethyl)-1H-indol-4-amine]
2 | + (+ = 0 μM ≤ SC150 < 0.05 μM) | CN1CCC(Nc2cccc3c2cc(C#CCNc2ccc(S(C)(=O)=O)cc2OCC#N)n3CC(F)(F)F)CC1 [Compound 489A, 2-{5-methanesulfonyl-2-[(3-{4-[(1-methylpiperidin-4-yl)amino]-1-(2,2,2-trifluoroethyl)-1H-indol-2-yl}prop-2-yn-1-yl)amino]phenoxy} acetonitrile]
3 | + (+ = 0 μM ≤ SC150 < 0.05 μM) | COc1cc(S(C)(=O)=O)ccc1NCC#Cc1cc2c(N[C@H]3CC[C@H](N4CCC5(CC4)COC5)CC3)cccc2n1CC(F)(F)F [Compound 313A, 2-{3-[(4-methane-sulfonyl-2-methoxy-phenyl)amino]prop-1-yn-1-yl}-N-[(1R,4R)-4-{2-oxa-7-azaspiro[3.5]nonan-7-yl}cyclohexyl]-1-(2,2,2-trifluoroethyl)-1H-indol-4-amine]
4 | ++++ (++++ = 0.2 μM ≤ SC150 < 1 μM) | COCC(O)CN1CCC(Nc2cccc3c2cc(C#CCNc2cc(S(C)(=O)=O)ccc2OC)n3CC(F)(F)F)CC1 (centres unmarked) [Compound 670A, 1-{4-[(2-{3-[(5-methanesulfonyl-2-methoxyphenyl)amino]prop-1-yn-1-yl}-1-(2,2,2-trifluoroethyl)-1H-indol-4-yl)amino]piperidin-1-yl}-3-methoxypropan-2-ol]
5 | + (+ = 0 μM ≤ SC150 < 0.05 μM) | COC(=O)c1ccc(NCC#Cc2cc3c(N[C@H]4CCN(CCO)C[C@H]4F)cccc3n2CC(F)(F)F)c(OC)c1 [Compound 903A, methyl 4-{[3-(4-{[(3R,4S)-3-fluoro-1-(2-hydroxyethyl)piperidin-4-yl]amino}-1-(2,2,2-trifluoroethyl)-1H-indol-2-yl)prop-2-yn-1-yl]amino}-3-methoxybenzoate]
6 | + (+ = 0 μM ≤ SC150 < 0.05 μM) | CNC(=O)c1ccc(NCC#Cc2cc3c(N[C@H]4CCN(C)C[C@@H]4F)cccc3n2CC(F)(F)F)c(OC)c1 (racemic) [Compound 785A, rac-4-{[3-(4-{[(3R,4R)-3-fluoro-1-methylpiperidin-4-yl]amino}-1-(2,2,2-trifluoroethyl)-1H-indol-2-yl)prop-2-yn-1-yl]amino}-3-methoxy-N-methylbenzamide]
7 | + (+ = 0 μM ≤ SC150 < 0.05 μM) | COc1cc(S(C)(=O)=O)ccc1NCC#Cc1cc2c(N[C@H]3CCN(C(C)(C)C)C[C@H]3F)cccc2n1CC(F)(F)F [Compound 1069A, N-[(3R,4S)-1-tert-butyl-3-fluoropiperidin-4-yl]-2-{3-[(4-methanesulfonyl-2-methoxyphenyl)amino]prop-1-yn-1-yl}-1-(2,2,2-trifluoroethyl)-1H-indol-4-amine]
8 | + (+ = 0 μM ≤ SC150 < 0.05 μM) | CNC(=O)c1cc(OC)c(NCC#Cc2cc3c(N[C@H]4CCN(C)C[C@H]4F)cccc3n2CC(F)(F)F)cc1F [Compound 827A, 2-fluoro-4-{[3-(4-{[(3R,4S)-3-fluoro-1-methylpiperidin-4-yl]amino}-1-(2,2,2-trifluoroethyl)-1H-indol-2-yl)prop-2-yn-1-yl]amino}-5-methoxy-N-methylbenzamide]
9 | + (+ = 0 μM ≤ SC150 < 0.05 μM) | CNC(=O)c1ccc(NCC#Cc2cc3c(N[C@H]4CC[C@@H](N)CC4)cccc3n2CC(F)(F)F)c(OC)c1 [Compound 25A, 3-methoxy-N-methyl-4-{[3-(4-{[(1S,4S)-4-aminocyclohexyl]amino}-1-(2,2,2-trifluoroethyl)-1H-indol-2-yl)prop-2-yn-1-yl]amino}benzamide]
10 | + (+ = 0 μM ≤ SC150 < 0.05 μM) | COc1cc(S(C)(=O)=O)ccc1NCC#Cc1cc2c(NC3CCC4(CC3)OCCO4)cccc2n1CC(F)(F)F [Compound 64A, N-{1,4-dioxaspiro[4.5]decan-8-yl}-2-{3-[(4-methane-sulfonyl-2-methoxy-phenyl)amino]prop-1-yn-1-yl}-1-(2,2,2-trifluoroethyl)-1H-indol-4-amine]
11 | + (+ = 0 μM ≤ SC150 < 0.05 μM) | COc1cc(S(N)(=O)=O)ccc1NCC#Cc1cc2c(N[C@H]3CC[C@H](N4CC5(CCCOC5)C4)CC3)cccc2n1CC(F)(F)F [Compound 320A, 3-methoxy-4-{[3-(4-{[(1R,4R)-4-{6-oxa-2-azaspiro[3.5]nonan-2-yl}cyclohexyl]amino}-1-(2,2,2-trifluoro-ethyl)-1H-indol-2-yl)prop-2-yn-1-yl]amino} benzene-1-sulfonamide]
12 | + (+ = 0 μM ≤ SC150 < 0.05 μM) | COc1cc(C(=O)NCC(CO)OC)ccc1NCC#Cc1cc2c(N[C@@H]3CCN(C)C[C@@H]3F)cccc2n1CC(F)(F)F (single isomer, unassigned) [Compound 966A]
13 | + (+ = 0 μM ≤ SC150 < 0.05 μM) | COc1cc(C(=O)N(C)C(C)C)ccc1NCC#Cc1cc2c(N[C@@H]3CCN(C)C[C@@H]3F)cccc2n1CC(F)(F)F [Compound 944A, 4-{[3-(4-{[(3S,4R)-3-fluoro-1-methylpiperidin-4-yl]amino}-1-(2,2,2-trifluoroethyl)-1H-indol-2-yl)prop-2-yn-1-yl]amino}-3-methoxy-N-methyl-N-(propan-2-yl)benzamide]
14 | ++ (++ = 0.05 μM ≤ SC150 < 0.1 μM) | COc1cc(S(=O)(=O)NC(C)=O)ccc1NCC#Cc1cc2c(N[C@H]3CC[C@@H](N(C)C)CC3)cccc2n1CC(F)(F)F [Compound 84A, N-(3-methoxy-4-{[3-(4-{[(1S,4S)-4-(dimethylamino)cyclohexyl]amino}-1-(2,2,2-trifluoroethyl)-1H-indol-2-yl)prop-2-yn-1-yl]amino}benzenesulfonyl)acetamide]
15 | + (+ = 0 μM ≤ SC150 < 0.05 μM) | COc1cc(S(N)(=O)=O)ccc1NCC#Cc1cc2c(N[C@H]3CCNC[C@H]3F)cccc2n1CC(F)(F)F [Compound 846A]
16 | + (+ = 0 μM ≤ SC150 < 0.05 μM) | CNC(=O)c1ccc(NCC#Cc2cc3c(N[C@H]4CC[C@@H](N5CC6(COC6)C5)CC4)cccc3n2CC(F)(F)F)c(OCC#N)c1 [Compound 243A, 3-(cyanomethoxy)-N-methyl-4-{[3-(4-{[(1S,4S)-4-{2-oxa-6-azaspiro[3.3]heptan-6-yl}cyclohexyl]amino}-1-(2,2,2-trifluoroethyl)-1H-indol-2-yl)prop-2-yn-1-yl]amino}benzamide]
17 | + (+ = 0 μM ≤ SC150 < 0.05 μM) | COc1cc(S(C)(=O)=O)ccc1NCC#Cc1cc2c(N[C@H]3CC[C@H](N4CCC5(CCOCC5)CC4)CC3)cccc2n1CC(F)(F)F [Compound 414A, 2-{3-[(4-methane-sulfonyl-2-methoxy-phenyl)amino]prop-1-yn-1-yl}-N-[(1R,4R)-4-{3-oxa-9-azaspiro[5.5]undecan-9-yl}cyclohexyl]-1-(2,2,2-trifluoroethyl)-1H-indol-4-amine]
18 | ++ (++ = 0.05 μM ≤ SC150 < 0.1 μM) | COCC(O)CN1CCC(Nc2cccc3c2cc(C#CCNc2ccc(S(C)(=O)=O)cc2)n3CC(F)(F)F)C1 (stereo not drawn) [Compound 457A, l-{3-[(2-{3-[(4-methanesulfonylphenyl)amino]prop-1-yn-1-yl}-1-(2,2,2-trifluoroethyl)-1H-indol-4-yl)amino]pyrrolidin-1-yl}-3-methoxypropan-2-ol]
19 | + (+ = 0 μM ≤ SC150 < 0.05 μM) | CNC(=O)c1ccc(NCC#Cc2cc3c(N[C@H]4CC[C@@H](N(C)C)CC4)cccc3n2CC(F)(F)F)c(OCCF)c1 [Compound 105A, 3-(2-fluoroethoxy)-N-methyl-4-{[3-(4-{[(1S,4S)-4-(dimethyl-amino)cyclohexyl]amino}-1-(2,2,2-trifluoro-ethyl)-1H-indol-2-yl)prop-2-yn-1-yl]amino}benzamide]
20 | + (+ = 0 μM ≤ SC150 < 0.05 μM) | CCCn1c(C#CCNc2ccc(S(C)(=O)=O)cc2OC)cc2c(N[C@H]3CC[C@H](N4CCOCC4)CC3)cccc21 [Compound 178A, 2-{3-[(4-methane-sulfonyl-2-methoxy-phenyl)amino]prop-1-yn-1-yl}-1-propyl-N-[(1R,4R)-4-(morpholin-4-yl)cyclohexyl]-1H-indol-4-amine]
21 | + (+ = 0 μM ≤ SC150 < 0.05 μM) | CNC(=O)c1ccc(NCC#Cc2cc3c(N[C@H]4CC[C@H](N(C)C)CC4)cccc3n2CC(F)(F)F)c(O)c1 [Compound 98A, 3-hydroxy-N-methyl-4-{[3-(4-{[(1R,4R)-4-(dimethylamino)cyclo-hexyl]amino}-1-(2,2,2-trifluoroethyl)-1H-indol-2-yl)prop-2-yn-1-yl]amino}benzamide]
22 | + (+ = 0 μM ≤ SC150 < 0.05 μM) | CCN(CC)CCNC(=O)c1ccc(NCC#Cc2cc3c(N[C@@H]4CCN(C)C[C@@H]4F)cccc3n2CC(F)(F)F)c(OC)c1 [Compound 946A]
23 | + (+ = 0 μM ≤ SC150 < 0.05 μM) | COc1cc(C(=O)O)ccc1NCC#Cc1cc2c(N[C@H]3CCN(C)C[C@H]3F)cccc2n1CC(F)(F)F [Compound 780A, 4-{[3-(4-{[(3R,4S)-3-fluoro-1-methylpiperidin-4-yl]amino}-1-(2,2,2-trifluoroethyl)-1H-indol-2-yl)prop-2-yn-1-yl]amino}-3-methoxybenzoic acid]
